# In US4220587A, “Amino acid derivatives of 6-(2-amino-2-arylacetamido)penicillanic acids” (Mitsubishi Chemical Industries, Limited, priority 1975, dated 1980):
# Like-named read-outs stand apart in the source and are kept apart here.
# Assays:
# Type in all cases: cell-based
# Staph. aureus (FDA 209P) = assay: MIC, agar dilution, Staph. aureus; conditions: Staphylococcus aureus, FDA209P, read-out: Minimum Inhibitory Concentration (MIC)
# Protocol: (§1) The compounds of this invention were tested for antibacterial activity according to the following procedure. Nutrient broth and nutrient agar were prepared according to the conventional procedure. […] was used as a vehicle. The stock solution was prepared at 100 μg/ml of the test material in the vehicle. Two-fold dilutions were made with the vehicle and then the diluted stock solution was added to a petri dish and solidified by chilling. Test organisms were grown in the nutrient broth for 20 hours at 37° C. The hardened surface was inoculated with a loopful of the test organism solution containing 1×10^6 cells per milliliter and incubated for 20 hours at 37° C. At the end of this period, growth of the organism was observed. […] The following Table 1 summarizes the activity of representative compounds as active antibacterial agents, and compares them with the prior art compounds and the reference drug Sulbenicillin.
# [1] = system: Proteus vulgaris (IFO 3045); assay: MIC, agar dilution, Proteus vulgaris; conditions: read-out: Minimum Inhibitory Concentration (MIC)
# Protocol: as §1
# [2] = system: Pseudomonas aeruginosa M-11; assay: MIC, agar dilution, Pseudomonas aeruginosa M-11; conditions: 20 h, read-out: Minimum Inhibitory Concentration (MIC)
# Protocol: as §1
# ^*1 streptomycin resistant strain derived from Pseudomonas aeruginosa
# [3] = system: Proteus mirabilis (IFO 3849); assay: MIC, agar dilution, Proteus mirabilis; conditions: read-out: Minimum Inhibitory Concentration (MIC)
# Protocol: as §1
# [4] = system: Proteus morgani (IFO 3848); assay: MIC, agar dilution, Proteus morgani; conditions: Morganella morganii, read-out: Minimum Inhibitory Concentration (MIC)
# Protocol: as §1
# [5] = system: Klebsiella pneumoniae (ATCC 25955); assay: MIC, agar dilution, Klebsiella pneumoniae; conditions: read-out: Minimum Inhibitory Concentration (MIC)
# Protocol: as §1
# E. coli (NIHJ) = assay: MIC, agar dilution, E. coli; conditions: Escherichia coli, read-out: Minimum Inhibitory Concentration (MIC)
# Protocol: as §1
# [6] = system: Pseudomonas aeruginosa (ATCC 15691); assay: MIC, agar dilution, Pseudomonas aeruginosa ATCC 15691; conditions: read-out: Minimum Inhibitory Concentration (MIC)
# Protocol: as §1
# [7] = system: Pseudomonas aeruginosa M-12; assay: MIC, agar dilution, Pseudomonas aeruginosa M-12; conditions: ATCC15692, 20 h, read-out: Minimum Inhibitory Concentration (MIC)
# Protocol: as §1
# ^*2 chloramphenicol resistant strain derived from Pseudomonas
# [8] = system: Pseudomonas aeruginosa M-16; assay: MIC, agar dilution, Pseudomonas aeruginosa M-16; conditions: M16, 20 h, read-out: Minimum Inhibitory Concentration (MIC)
# Protocol: as §1
# ^*3 streptomycin, chloramphenicol and mercury resistant strain derive
# Pseudomonas aeruginosa = assay: MIC, agar dilution, Pseudomonas aeruginosa (strain not given); conditions: ATCC 15691 / ATCC 15692, 20 h, read-out: Minimum Inhibitory Concentration (MIC)
# Protocol: as §1
# [9] = system: Salmonella typhimurium (TA 100); assay: MIC, agar dilution, Salmonella typhimurium; conditions: Salmonella enterica, read-out: Minimum Inhibitory Concentration (MIC)
# Protocol: as §1
# [10] = Proteus vulgaris, IFO3045, 20 h
# [11] = Proteus mirabilis, IFO3849, 20 h
# [12] = Klebsiella pneumoniae, ATCC25955, 20 h
# [13] = Salmonella typhimurium TA 100, ampicillin resistant strain, nutrient agar, 20 hours at 37° C.
SMILES,MIC (Staph. aureus (FDA 209P); 20 h),"MIC [1, 10]","MIC [3, 11]","MIC ([4]; IFO3848, 20 h)",MIC (E. coli (NIHJ); 20 h),further results
CC1(C)S[C@@H]2[C@H](NC(=O)[C@H](NC(=O)[C@H]3Cc4ccccc4CN3)c3ccccc3)C(=O)N2[C@H]1C(=O)O [Compound 15],0.3 mg/L,25 mg/L,25 mg/L,25 mg/L,25 mg/L,"MIC [2]: 25 mg/L; MIC [5, 12]: 25 mg/L; MIC ([6]; ATCC15691, 20 h): 50 mg/L; MIC [7]: 25 mg/L; MIC [8]: 25 mg/L"
CC1(C)S[C@@H]2[C@H](NC(=O)[C@H](NC(=O)[C@H]3CCCN3)c3ccccc3)C(=O)N2[C@H]1C(=O)O [Compound 1],0.45 mg/L,1.5 mg/L,1.5 mg/L,3.1 mg/L,6.2 mg/L,"MIC [5, 12]: 50 mg/L; MIC ([6]; ATCC15691, 20 h): 12.5 mg/L; MIC [7]: 3.1 mg/L; MIC [8]: 3.1 mg/L"
Cc1ccc(S(=O)(=O)N(C)[C@@H](C(=O)N[C@@H](C(=O)N[C@@H]2C(=O)N3[C@@H]2SC(C)(C)[C@@H]3C(=O)O)c2ccccc2)c2ccccc2)cc1 [Compound 26],0.62 mg/L,–,–,–,–,–
CC1(C)S[C@@H]2[C@H](NC(=O)[C@H](NC(=O)C3CCCCN3)c3ccccc3)C(=O)N2[C@H]1C(=O)O (stereo partly shown) [Compound 13],3.75 mg/L,–,–,–,–,–
CC1(C)S[C@@H]2[C@H](NC(=O)[C@H](NC(=O)C3Cc4ccccc4CN3)c3ccccc3)C(=O)N2[C@H]1C(=O)O (stereo partly shown) [Compound 16],0.46 mg/L,–,–,–,–,–
CC1(C)S[C@@H]2[C@H](NC(=O)[C@H](NC(=O)[C@H]3CCCCN3C(=O)OCc3ccccc3)c3ccc(O)cc3)C(=O)N2[C@H]1C(=O)O [Compound 8],1.25 mg/L,–,–,–,–,–
CN[C@H](C)C(=O)N[C@@H](C(=O)N[C@@H]1C(=O)N2[C@@H]1SC(C)(C)[C@@H]2C(=O)O)c1ccccc1 [Compound 20],1.87 mg/L,6.2 mg/L,9.3 mg/L,9.3 mg/L,25 mg/L,MIC (Pseudomonas aeruginosa): 37.5 mg/L
CC1(C)S[C@@H]2[C@H](NC(=O)[C@H](NC(=O)[C@H]3CCCCN3C(N)=O)c3ccccc3)C(=O)N2[C@H]1C(=O)O [Compound 10],0.31 mg/L,–,–,–,–,–
CC1(C)S[C@@H]2[C@H](NC(=O)[C@H](NC(=O)[C@H]3CCCCN3)c3ccc(O)cc3)C(=O)N2[C@H]1C(=O)O [Compound 7],1.25 mg/L,< 6.2 mg/L,9 mg/L,< 6.2 mg/L,25 mg/L,"MIC [5, 12]: 9 mg/L"
CC1(C)S[C@@H]2[C@H](NC(=O)[C@H](NC(=O)[C@@H]3CCCN3C(=O)OCc3ccccc3)c3ccc(O)cc3)C(=O)N2[C@H]1C(=O)O [Compound 6],1.25 mg/L,–,–,–,–,–
CC1(C)S[C@@H]2[C@H](NC(=O)[C@H](NC(=O)[C@H]3CCCCN3)c3ccccc3)C(=O)N2[C@H]1C(=O)O [Compound 12],1.25 mg/L,–,–,–,–,–
CC1(C)S[C@@H]2[C@H](NC(=O)[C@H](NC(=O)[C@H]3CCN3)c3ccccc3)C(=O)N2[C@H]1C(=O)O [Compound 28],3.75 mg/L,6.2 mg/L,6.2 mg/L,12.5 mg/L,50 mg/L,MIC (Pseudomonas aeruginosa): 25 mg/L
Cc1ccc(S(=O)(=O)N(C)[C@H](C)C(=O)N[C@@H](C(=O)N[C@@H]2C(=O)N3[C@@H]2SC(C)(C)[C@@H]3C(=O)O)c2ccc(O)cc2)cc1 [Compound 18],0.31 mg/L,–,–,–,–,–
Cc1ccc(S(=O)(=O)N(C)[C@H](C)C(=O)N[C@@H](C(=O)N[C@@H]2C(=O)N3[C@@H]2SC(C)(C)[C@@H]3C(=O)O)c2ccccc2)cc1 [Compound 17],0.15 mg/L,12.5 mg/L,12.5 mg/L,9 mg/L,25 mg/L,"MIC (Pseudomonas aeruginosa): 25 mg/L; MIC [9, 13]: 12.5 mg/L"
"CC1(C)S[C@@H]2[C@H](NC(=O)[C@H](NC(=O)[C@H]3CCCN3C(=O)OCc3ccccc3)c3ccccc3)C(=O)N2[C@H]1C(=O)O [Compound 2, potassium 6-[D-2-(N-benzyloxycarbonyl-D-prolyl)amino-2-phenylacetamido]penicillanatemonohydrate]",1.25 mg/L,–,–,–,–,–
CC1(C)S[C@@H]2[C@H](NC(=O)[C@H](NC(=O)[C@H]3CCCCN3C(=O)OCc3ccccc3)c3ccccc3)C(=O)N2[C@H]1C(=O)O [Compound 9],0.62 mg/L,–,–,–,–,–
Cc1ccc(S(=O)(=O)N(C)[C@H](CC(C)C)C(=O)N[C@@H](C(=O)N[C@@H]2C(=O)N3[C@@H]2SC(C)(C)[C@@H]3C(=O)O)c2ccccc2)cc1 [Compound 23],0.62 mg/L,–,–,–,–,–
Cc1ccc(S(=O)(=O)N(C)C(C)C(=O)N[C@@H](C(=O)N[C@@H]2C(=O)N3[C@@H]2SC(C)(C)[C@@H]3C(=O)O)c2ccccc2)cc1 (stereo partly shown) [Compound 19],0.15 mg/L,12.5 mg/L,12.5 mg/L,12.5 mg/L,25 mg/L,"MIC (Pseudomonas aeruginosa): 37 mg/L; MIC ([9]; TYPHIMURIUM, 20 h): 9 mg/L"
CC(C)C[C@H](C(=O)N[C@@H](C(=O)N[C@@H]1C(=O)N2[C@@H]1SC(C)(C)[C@@H]2C(=O)O)c1ccccc1)N(C)C(=O)OCc1ccccc1 [Compound 24],0.62 mg/L,100 mg/L,100 mg/L,100 mg/L,50 mg/L,"MIC (Pseudomonas aeruginosa): 100 mg/L; MIC ([9]; TYPHIMURIUM, 20 h): < 6.25 mg/L"
Cc1ccc(S(=O)(=O)N(C)CC(=O)N[C@@H](C(=O)N[C@@H]2C(=O)N3[C@@H]2SC(C)(C)[C@@H]3C(=O)O)c2ccccc2)cc1 [Compound 22],0.31 mg/L,25 mg/L,23 mg/L,12.5 mg/L,25 mg/L,MIC (Pseudomonas aeruginosa): 25 mg/L
CN[C@H](C)C(=O)N[C@@H](C(=O)N[C@@H]1C(=O)N2[C@@H]1SC(C)(C)[C@@H]2C(=O)O)c1ccc(O)cc1 [Compound 21],1.87 mg/L,4.7 mg/L,6.2 mg/L,3.1 mg/L,12.3 mg/L,–
CC1(C)S[C@@H]2[C@H](NC(=O)[C@H](NC(=O)[C@H]3CCN3)c3ccc(O)cc3)C(=O)N2[C@H]1C(=O)O [Compound 29],5 mg/L,3.1 mg/L,3.1 mg/L,3.1 mg/L,18.7 mg/L,MIC (Pseudomonas aeruginosa): 37.5 mg/L
"CC1(C)S[C@@H]2[C@H](NC(=O)C(c3ccccc3)S(=O)(=O)O)C(=O)N2[C@H]1C(=O)O (stereo partly shown) [sulpenicillin, reference compound]",–,–,–,–,–,"MIC (Staph. aureus (FDA 209P); Staph. aureus FDA 209P, nutrient agar, 20 hours at 37° C.): 3.25 mg/L; MIC ([1]; IFO3045, Proteus vulgaris IFO 3045, nutrient agar, 20 hours at 37° C.): < 3.1 mg/L; MIC [2]: 25 mg/L; MIC ([3]; IFO3849, Proteus mirabilis IFO 3849, nutrient agar, 20 hours at 37° C.): < 3.1 mg/L; MIC ([4]; IFO3848, Proteus morgani IFO 3848, nutrient agar, 20 hours at 37° C.): < 3.1 mg/L; MIC ([5]; ATCC25955, Klebsiella pneumoniae ATCC 25955, nutrient agar, 20 hours at 37° C.): > 100 mg/L; MIC (E. coli (NIHJ); E. coli NIHJ, nutrient agar, 20 hours at 37° C.): 1.25 mg/L; MIC ([6]; ATCC15691, P. aeruginosa ATCC 15691, nutrient agar, 20 hours at 37° C.): 50 mg/L; MIC [7]: 25 mg/L; MIC [8]: 25 mg/L"
CN(C(=O)OCc1ccccc1)[C@@H](C(=O)N[C@@H](C(=O)N[C@@H]1C(=O)N2[C@@H]1SC(C)(C)[C@@H]2C(=O)O)c1ccccc1)c1ccccc1 [Compound 25],3.62 mg/L,25 mg/L,25 mg/L,25 mg/L,50 mg/L,"MIC [9, 13]: 12.5 mg/L"
CN[C@H](CC(C)C)C(=O)N[C@@H](C(=O)N[C@@H]1C(=O)N2[C@@H]1SC(C)(C)[C@@H]2C(=O)O)c1ccccc1 [Compound 27],0.62 mg/L,–,–,–,–,–
CC1(C)S[C@@H]2[C@H](NC(=O)[C@H](NC(=O)C3NCc4ccccc43)c3ccccc3)C(=O)N2[C@H]1C(=O)O (stereo partly shown) [Compound 14],0.31 mg/L,–,–,–,–,–
CC1(C)S[C@@H]2[C@H](NC(=O)[C@H](NC(=O)[C@H]3CCCN3C(=O)OCc3ccccc3)c3ccc(O)cc3)C(=O)N2[C@H]1C(=O)O [Compound 5],2.5 mg/L,–,–,–,–,–
CC1(C)S[C@@H]2[C@H](NC(=O)[C@H](NC(=O)C3CCCCN3C(N)=O)c3ccccc3)C(=O)N2[C@H]1C(=O)O (stereo partly shown) [Compound 11],0.31 mg/L,–,–,–,–,–
